Experimental data as given in patent publication US11066414B2, “Cot modulators and methods of use thereof” (Gilead Sciences, Inc., priority 2015, dated 2021).
Where two headings read alike, the source gives them in different places.

Tests used:
TNFα = assay: Cot Monocyte TNFα Cell Based Assay
Human Cot = Human Cot (Homo sapiens (Human), UniProt P41279); assay: High Throughput Cot Biochemical Assay; details: Cot HTRF (TR-FRET KinEASE) biochemical assay, 400 μM ATP
[1] = Homo sapiens, Monocyte, read-out: EC50 TNF, LPS-stimulated human monocytes, TNFα TR-FRET

Human Cot, sequence (P41279 30-397): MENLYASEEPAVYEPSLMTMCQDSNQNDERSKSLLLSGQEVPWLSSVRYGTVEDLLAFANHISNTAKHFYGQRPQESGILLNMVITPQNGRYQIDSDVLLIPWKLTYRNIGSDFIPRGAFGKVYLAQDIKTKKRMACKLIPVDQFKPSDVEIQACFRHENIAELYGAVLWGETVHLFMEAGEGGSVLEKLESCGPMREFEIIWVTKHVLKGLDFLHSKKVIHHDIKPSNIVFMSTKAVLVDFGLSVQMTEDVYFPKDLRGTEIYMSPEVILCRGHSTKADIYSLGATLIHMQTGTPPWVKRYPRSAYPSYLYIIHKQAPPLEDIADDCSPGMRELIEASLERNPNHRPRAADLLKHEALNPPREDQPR

| Compound | EC50 (TNFα; [1]) | IC50 (Human Cot; IC50 HTRF) | EC50 (TNFα; read-out: EC50 TNF, LPS-stimulated human monocytes, TNFα TR-FRET) | IC50 (Human Cot; read-out: IC50 HTRF) |
| --- | --- | --- | --- | --- |
| Cc1nc(F)ccc1[C@H](Nc1cc(Cl)c2ncc(C#N)c(NCC(C)(C)C)c2c1)c1nnn(C2(C(F)F)CC2)c1I [Example 945, (S)-8-chloro-6-(((1-(1-(difluoromethyl)cyclopropyl)-5-iodo-1H-1,2,3-triazol-4-yl)(6-fluoro-2-methylpyridin-3-yl)methyl)amino)-4-(neopentylamino)quinoline-3-carbonitrile] | 142 nM | 17 nM | – | – |
| Cc1nc(F)ccc1[C@H](Nc1cc(Cl)c2ncc(C#N)c(NCC(C)(C)C)c2c1)c1nnn(C2CC2)c1C1CC1 [Example 946, (S)-8-chloro-6-(((1,5-dicyclopropyl-1H-1,2,3-triazol-4-yl)(6-fluoro-2-methylpyridin-3-yl)methyl)amino)-4-(neopentylamino)quinoline-3-carbonitrile] | 153 nM | 5 nM | – | – |
| Cc1nc(F)ccc1[C@H](Nc1cc(Cl)c2ncc(C#N)c(NCC(C)(C)C(F)(F)F)c2c1)c1nnn(C2(C(F)F)CC2)c1F [Example 948, (S)-8-chloro-6-(((1-(1-(difluoromethyl)cyclopropyl)-5-fluoro-1H-1,2,3-triazol-4-yl)(6-fluoro-2-methylpyridin-3-yl)methyl)amino)-4-((3,3,3-trifluoro-2,2-dimethylpropyl)amino)-quinoline-3-carbonitrile] | 99 nM | 5 nM | – | – |
| Cc1nc(F)ccc1[C@H](Nc1cc(Cl)c2ncc(C#N)c(NCC(C)(C)C)c2c1)c1nnn(C2(C3CC3)CC2)c1F [Example 949, (S)-6-(((1-([1,1′-bi(cyclopropan)]-1-yl)-5-fluoro-1H-1,2,3-triazol-4-yl)(6-fluoro-2-methylpyridin-3-yl)methyl)amino)-8-chloro-4-(neopentylamino)quinoline-3-carbonitrile] | 34 nM | 4 nM | – | – |
| CC[C@@H](Nc1c(C#N)cnc2c(Cl)cc(N[C@@H](c3ccc(F)nc3C)c3nnn(C4(C(F)(F)F)CC4)c3F)cc12)c1ccccc1 [Example 950, 8-chloro-6-(((S)-(5-fluoro-1-(1-(trifluoromethyl)cyclopropyl)-1H-1,2,3-triazol-4-yl)(6-fluoro-2-methylpyridin-3-yl)methyl)amino)-4-(((R)-1-phenylpropyl)amino)quinoline-3-carbonitrile] | 260 nM | 17 nM | – | – |
| Cc1nc(F)ccc1[C@H](Nc1cc(Cl)c2ncc(C#N)c(NCC(C)(C)C)c2c1)c1nnn([C@@H](C)CF)c1F [Example 952, 8-chloro-6-(((S)-(5-fluoro-1-((S)-1-fluoropropan-2-yl)-1H-1,2,3-triazol-4-yl)(6-fluoro-2-methylpyridin-3-yl)methyl)amino)-4-(neopentylamino)quinoline-3-carbonitrile] | 36 nM | 4 nM | – | – |
| Cc1nc(F)ccc1[C@H](Nc1cc(Cl)c2ncc(C#N)c(Nc3cnc(F)c(F)c3)c2c1)c1nnn(C2(C(F)F)CC2)c1F [Example 953, (S)-8-chloro-6-(((1-(1-(difluoromethyl)cyclopropyl)-5-fluoro-1H-1,2,3-triazol-4-yl)(6-fluoro-2-methylpyridin-3-yl)methyl)amino)-4-((5,6-difluoropyridin-3-yl)amino)quinoline-3-carbonitrile] | 353 nM | 36 nM | – | – |
| Cc1nc(F)ccc1[C@H](Nc1cc(C#N)c2ncc(C#N)c(NCC(C)(C)C)c2c1)c1nnn(C23CC(C2)C3)c1F [Example 954, (S)-6-(((1-(bicyclo[1.1.1]pentan-1-yl)-5-fluoro-1H-1,2,3-triazol-4-yl)(6-fluoro-2-methylpyridin-3-yl)methyl)amino)-4-(neopentylamino)quinoline-3,8-dicarbonitrile] | 16 nM | 7 nM | – | – |
| Cc1nc(F)ccc1[C@H](Nc1cc(Cl)c2ncc(C#N)c(NCC(C)(C)C(F)(F)F)c2c1)c1nnn([C@@H](C)CF)c1F [Example 955, 8-chloro-6-(((S)-(5-fluoro-1-((S)-1-fluoropropan-2-yl)-1H-1,2,3-triazol-4-yl)(6-fluoro-2-methylpyridin-3-yl)methyl)amino)-4-((3,3,3-trifluoro-2,2-dimethylpropyl)amino)quinoline-3-carbonitrile] | 50 nM | 6 nM | – | – |
| Cc1nc(F)ccc1[C@H](Nc1cc(Cl)c2ncc(C#N)c(NCC(C)(C)C(F)(F)F)c2c1)c1nnn(C23CC(C2)C3)c1F [Example 956, (S)-6-(((1-(bicyclo[1.1.1]pentan-1-yl)-5-fluoro-1H-1,2,3-triazol-4-yl)(6-fluoro-2-methylpyridin-3-yl)methyl)amino)-8-chloro-4-((3,3,3-trifluoro-2,2-dimethylpropyl)amino)quinoline-3-carbonitrile] | 44 nM | 7 nM | – | – |
| Cc1nc(F)ccc1[C@H](Nc1cc(Cl)c2ncc(C#N)c(NCC(C)(C)C(F)(F)F)c2c1)c1nnn(C2(C3CC3)CC2)c1F [Example 957] | – | – | 54 nM | 5 nM |
| Cc1nc(F)ccc1[C@H](Nc1cc(Cl)c2ncc(C#N)c(NCC(C)(C)C(F)(F)F)c2c1)c1nnn(C2(C)CC2)c1F [Example 959, (S)-8-chloro-6-(((5-fluoro-1-(1-methylcyclopropyl)-1H-1,2,3-triazol-4-yl)(6-fluoro-2-methylpyridin-3-yl)methyl)amino)-4-((3,3,3-trifluoro-2,2-dimethylpropyl)amino)quinoline-3-carbonitrile] | 41 nM | 3 nM | – | – |
| Cc1nc(F)ccc1[C@H](Nc1cc(Cl)c2ncc(C#N)c(NCC(C)(C)C)c2c1)c1nnn(C2(C(F)F)CC2)c1F [Example 960, (S)-8-chloro-6-(((1-(1-(difluoromethyl)cyclopropyl)-5-fluoro-1H-1,2,3-triazol-4-yl)(6-fluoro-2-methylpyridin-3-yl)methyl)amino)-4-(neopentylamino)quinoline-3-carbonitrile] | 55 nM | 7 nM | – | – |
| Cc1nc(F)ccc1[C@H](Nc1cc(Cl)c2ncc(C#N)c(NCC(C)(C)C)c2c1)c1nnn(C)c1F [Example 963, (S)-8-chloro-6-(((5-fluoro-1-methyl-1H-1,2,3-triazol-4-yl)(6-fluoro-2-methylpyridin-3-yl)methyl)amino)-4-(neopentylamino)quinoline-3-carbonitrile] | 51 nM | 4 nM | – | – |
| [2H]c1c([C@@H](Nc2cc(Cl)c3ncc(C#N)c(NC([2H])([2H])C(C)(C)C)c3c2)c2ccc(F)nc2C)nnn1C1(C(F)F)CC1 [Example 973, (S)-8-chloro-6-(((1-(1-(difluoromethyl)cyclopropyl)-1H-1,2,3-triazol-4-yl-5-d)(6-fluoro-2-methylpyridin-3-yl)methyl)amino)-4-((2,2-dimethylpropyl-1,1-d2)amino)quinoline-3-carbonitrile] | 34 nM | 3 nM | – | – |

Continued, values first:

| EC50 (TNFα; [1]) | IC50 (Human Cot; IC50 HTRF) | EC50 (TNFα; read-out: EC50 TNF, LPS-stimulated human monocytes, TNFα TR-FRET) | IC50 (Human Cot; read-out: IC50 HTRF) | Compound |
| --- | --- | --- | --- | --- |
| 105 nM | 3 nM | – | – | COc1c([C@@H](Nc2cc(C#N)c3ncc(C#N)c(NCC(C)(C)C)c3c2)c2ccc(F)nc2C)nnn1C1(C(F)F)CC1 [Example 964, (S)-6-(((1-(1-(difluoromethyl)cyclopropyl)-5-methoxy-1H-1,2,3-triazol-4-yl)(6-fluoro-2-methylpyridin-3-yl)methyl)amino)-4-(neopentylamino)quinoline-3,8-dicarbonitrile] |
| 78 nM | 4 nM | – | – | COc1c([C@@H](Nc2cc(Cl)c3ncc(C#N)c(NCC(C)(C)C)c3c2)c2ccc(F)nc2C)nnn1C1(C(F)F)CC1 [Example 965, (S)-8-chloro-6-(((1-(1-(difluoromethyl)cyclopropyl)-5-methoxy-1H-1,2,3-triazol-4-yl)(6-fluoro-2-methylpyridin-3-yl)methyl)amino)-4-(neopentylamino)quinoline-3-carbonitrile] |
| 94 nM | 2 nM | – | – | COc1c([C@@H](Nc2cc(Cl)c3ncc(C#N)c(NCC(C)(C)C)c3c2)c2ccc(F)nc2C)nnn1C1CC1 [Example 967, (S)-8-chloro-6-(((1-cyclopropyl-5-methoxy-1H-1,2,3-triazol-4-yl)(6-fluoro-2-methylpyridin-3-yl)methyl)amino)-4-(neopentylamino)quinoline-3-carbonitrile] |
| 94 nM | 2 nM | – | – | COc1c([C@@H](Nc2cc(Cl)c3ncc(C#N)c(NCC(C)(C)C)c3c2)c2ccc(F)nc2C)nnn1C12CC(C1)C2 [Example 968, (S)-6-(((1-(bicyclo[1.1.1]pentan-1-yl)-5-methoxy-1H-1,2,3-triazol-4-yl)(6-fluoro-2-methylpyridin-3-yl)methyl)amino)-8-chloro-4-(neopentylamino)quinoline-3-carbonitrile] |
| 258 nM | 8 nM | – | – | COc1c([C@@H](Nc2cc(Cl)c3ncc(C#N)c(NCC(C)(C)C)c3c2)c2ccc(F)nc2C)nnn1C [Example 969, (S)-8-chloro-6-(((6-fluoro-2-methylpyridin-3-yl)(5-methoxy-1-methyl-1H-1,2,3-triazol-4-yl)methyl)amino)-4-(neopentylamino)quinoline-3-carbonitrile] |
| 301 nM | 11 nM | – | – | COc1c(C(Nc2cc(Cl)c3ncc(C#N)c(NCC(C)(C)C)c3c2)c2ccc(F)nc2C)nnn1C (centres unmarked) [Example 971, 8-chloro-6-(((6-fluoro-2-methylpyridin-3-yl)(5-methoxy-1-methyl-1H-1,2,3-triazol-4-yl)methyl)amino)-4-(neopentylamino)quinoline-3-carbonitrile] |
| 1000 nM | 1820 nM | – | – | CC(C)(C)CNc1c(C#N)cnc2c(Cl)cc(N[C@H](c3cn(C4(C(F)(F)F)CC4)nn3)c3cccc4[nH]c(C(F)(F)F)nc34)cc12 [Example 972, (S)-8-chloro-4-(neopentylamino)-6-(((2-(trifluoromethyl)-1H-benzo[d]imidazol-4-yl)(1-(1-(trifluoromethyl)cyclopropyl)-1H-1,2,3-triazol-4-yl)methyl)amino)quinoline-3-carbonitrile] |
